Results on 11 compounds are retold here after patent publication US9212175B2, “Pharmaceutical hypocholesterolemic compositions” (Lipideon Biotechnology AG, priority 2009, dated 2015).

In series [1] the test system is C56BL/6 mice. The experiment in a line: Acute cholesterol absorption inhibition assay in mice. The class given is in vivo. The conditions noted are these: [3H]-cholesterol counts in plasma 2 h after cholesterol, relative to vehicle control. The method, then:
Accute Cholesterol Absorption Inhibition Assay in Mice
Compounds were added to a solution of 0.5% Methylcellulose (Sigma)/5% Solutol, BASF) or another suitable vehicle at a concentration of 0.1-1 mg/ml. C56BL/6 mice (n=3-6/group), aged 6-8 weeks were dosed orally with 0.1 ml of vehicle or 0.1 mL of vehicle containing the test compound (0.5-5 mg/kg) or ezetimibe (10 mg/kg) as positive control. Thirty minutes later all of the mice were dosed orally with 0.1 mL corn oil containing 2 μCi [^3H]-cholesterol per mouse. Two hours after administration of radiolabeled cholesterol, the animals were euthanized and blood collected. Cholesterol counts in plasma were determined, and percent inhibition of cholesterol absorption was calculated relative to the vehicle control.

Series [2] in a line: Determination of absorption: unidirectional permeability assay (Cloe Screen, Cyprotex). It counts as in vitro ADME. The conditions noted are these: human, Caco-2, apical side, cell monolayer, read-out: Papp in cm · s^−1. The method, then: It has further been shown that the compounds of the invention display the desired pharmacological activity by evaluation of their potency in vivo (in mice and hamsters). The bioavailability of the compounds of the present invention has been determined by unidirectional Caco2 Permeability measurement.
Determination of Absorption
The permeability of the compounds of the present invention was determined using the Cloe Screen® (unidirectional Cloe Screen […] permeability assay; Cyprotex) and is expressed by Papp (cm·s^−1). Caco-2 cells are widely used as an in vitro model for predicting human drug absorption. The Caco-2 cell line is derived from a human colorectal carcinoma, and when cultured, the cells spontaneously differentiate into monolayers of polarised enterocytes. The cells are typically seeded on Transwell™ plates and form a confluent monolayer over 20 days prior to the experiment. On day 20, the test compound is added to the apical side of the membrane and the transport of the compound across the monolayer is monitored over a 2 hour time period. The permeability coefficient (Papp) is calculated from the equation: Papp=(dQ/dt)/(C0xA), where (dQ/dt) is the rate of permeation of the drug across the cells, C0 is the donor compartment concentration at time zero and A is the area of the cell monolayer.
In general terms: Caco-2 monolayers are a common model of the intestinal barrier.

Series [3] relates to Syrian Golden Hamsters. The experiment in a line: Long-term LDL lowering in Syrian Golden hamsters. It counts as in vivo. The conditions noted are these: hamsters on high fat diet, dose 3 × 1 mg/kg/day, day 14, relative to vehicle control. As for the experimental part: Long-Term LDL Lowering in Syrian Golden Hamsters
Groups of 6 male hamsters weighing 90±10 g are fed a high fat diet (g/100 g: corn oil, 5; coconut oil, 5; cholesterol, 0.2; standard chow, 89.8) for 7 days. Afterwards vehicle or test compounds (3-10 mg/kg bw/day) in a solution of 0.5% Methylcellulose, 5% Solutol or another suitable vehicle are administered at least three times daily for 14 consecutive days. Following an overnight fasting period, blood serum is obtained from the retro-orbital sinus of each animal on day 0 (7 days after initiating of the high fat diet) and on days 8 and 15 after dosing for 7 and 14 days. The serum is assayed for total cholesterol, LDL-cholesterol, HDL-cholesterol and triglycerides. The percent change of treated relative to the vehicle control group is determined.

For `O=C(O)[C@@H]1CCCN1C(=O)COC1(CCc2ccc([C@@H]3[C@@H](CC[C@H](O)c4ccc(F)cc4)C(=O)N3c3ccc(F)cc3)cc2)COC1` [Example 20, (S)-1-(2-(3-(4-((2S,3R)-1-(4-fluorophenyl)-3-((S)-3-(4-fluorophenyl)-3-hydroxypropyl)-4-oxoazetidin-2-yl)phenethyl)oxetan-3-yloxy)acetyl)pyrrolidine-2-carboxylic acid], in series [1] (oral dose 1 mg/kg), the “Cholesterol Absorption Inhibition (%)” value was found to be 42%.

On to `O=C(O)[C@H]1CCCN1C(=O)COC1(CCc2ccc([C@@H]3[C@@H](CC[C@H](O)c4ccc(F)cc4)C(=O)N3c3ccc(F)cc3)cc2)COC1` [Example 19, (R)-1-(2-(3-(4-((2S,3R)-1-(4-fluorophenyl)-3-((S)-3-(4-fluorophenyl)-3-hydroxypropyl)-4-oxoazetidin-2-yl)phenethyl)oxetan-3-yloxy)acetyl)pyrrolidine-2-carboxylic acid], for which the “Cholesterol Absorption Inhibition (%)” value in series [1] (oral dose 1 mg/kg) came to 83%. The Papp A→B at 2 h in series [2] was found to be 0.14 ×10⁻⁶ cm/s.

Consider `O=C(COC1(CCc2ccc([C@@H]3[C@@H](CC[C@H](O)c4ccc(F)cc4)C(=O)N3c3ccc(F)cc3)cc2)COC1)NCCS(=O)(=O)O` [Example 28, 2-(2-(3-(4-((2S,3R)-1-(4-fluorophenyl)-3-((S)-3-(4-fluorophenyl)-3-hydroxypropyl)-4-oxoazetidin-2-yl)phenethyl)oxetan-3-yloxy)acetamido)ethanesulfonic acid], for which, in series [1] (oral dose 1 mg/kg), the “Cholesterol Absorption Inhibition (%)” value amounted to 63%.

In the case of `O=C(COC1(CCc2ccc([C@@H]3[C@@H](CC[C@H](O)c4ccc(F)cc4)C(=O)N3c3ccc(F)cc3)cc2)COC1)N[C@H](CO)C(=O)O` [Example 34, (R)-2-(2-(3-(4-((2S,3R)-1-(4-fluorophenyl)-3-((S)-3-(4-fluorophenyl)-3-hydroxypropyl)-4-oxoazetidin-2-yl)phenethyl)oxetan-3-yloxy)acetamido)-3-hydroxypropanoic acid], the “LDL reduction @ day 14 (%)” value in series [3] came out at 76%. In series [2], the Papp A→B at 2 h is 0.57 ×10⁻⁶ cm/s.

Regarding `NC(=O)[C@H]1CCCN1C(=O)COC1(CCc2ccc([C@@H]3[C@@H](CC[C@H](O)c4ccc(F)cc4)C(=O)N3c3ccc(F)cc3)cc2)COC1` [Example 22, (R)-1-(2-(3-(4-((2S,3R)-1-(4-fluorophenyl)-3-((S)-3-(4-fluorophenyl)-3-hydroxypropyl)-4-oxoazetidin-2-yl)phenethyl)oxetan-3-yloxy)acetyl)pyrrolidine-2-carboxamide], the “Cholesterol Absorption Inhibition (%)” value in series [1] (oral dose 1 mg/kg) was determined as 80%.

Take `O=C1[C@H](CC[C@H](O)c2ccc(F)cc2)[C@@H](c2ccc(O)cc2)N1c1ccc(F)cc1` [Ezetimibe, reference compound]: the “Cholesterol Absorption Inhibition (%)” value in series [1] (oral dose 10 mg/kg (positive control)) was 87%. In addition, the Papp A→B at 2 h in series [2] stood at 46 ×10⁻⁶ cm/s.

For `O=C(COC1(CCc2ccc([C@@H]3[C@@H](CC[C@H](O)c4ccc(F)cc4)C(=O)N3c3ccc(F)cc3)cc2)COC1)NC1(C(=O)O)CCC1` [Example 35, 1-(2-(3-(4-((2S,3R)-1-(4-fluorophenyl)-3-((S)-3-(4-fluorophenyl)-3-hydroxypropyl)-4-oxoazetidin-2-yl)phenethyl)oxetan-3-yloxy)acetamido)cyclobutanecarboxylic acid], in series [3], the “LDL reduction @ day 14 (%)” value is 80%. In series [2], the Papp A→B at 2 h stood at 0.73 ×10⁻⁶ cm/s.

Turning to `O=C(O)C1CCCCN1C(=O)COC1(CCc2ccc([C@@H]3[C@@H](CC[C@H](O)c4ccc(F)cc4)C(=O)N3c3ccc(F)cc3)cc2)COC1` (stereo partly drawn) [Example 23, 1-(2-(3-(4-((2S,3R)-1-(4-fluorophenyl)-3-((S)-3-(4-fluorophenyl)-3-hydroxypropyl)-4-oxoazetidin-2-yl)phenethyl)oxetan-3-yloxy)acetyl)piperidine-2-carboxylic acid], in series [1] (oral dose 1 mg/kg), the “Cholesterol Absorption Inhibition (%)” value came out at 73%.

In the case of `CC(C)[C@@H](NC(=O)COC1(CCc2ccc([C@@H]3[C@@H](CC[C@H](O)c4ccc(F)cc4)C(=O)N3c3ccc(F)cc3)cc2)COC1)C(=O)O` [Example 39, (R)-2-(2-(3-(4-((2S,3R)-1-(4-fluorophenyl)-3-((S)-3-(4-fluorophenyl)-3-hydroxypropyl)-4-oxoazetidin-2-yl)phenethyl)oxetan-3-yloxy)acetamido)-3-methylbutanoic acid], the “Cholesterol Absorption Inhibition (%)” value in series [1] (oral dose 1 mg/kg) is given as 82%. Also, the “LDL reduction @ day 14 (%)” value in series [3] is recorded as 74%. In series [2], the Papp A→B at 2 h turned out to be 0.92 ×10⁻⁶ cm/s.

As for `O=C(O)COC1(CCc2ccc([C@@H]3[C@@H](CC[C@H](O)c4ccc(F)cc4)C(=O)N3c3ccc(F)cc3)cc2)COC1` [Example 1, 2-(3-(4-((2S,3R)-1-(4-fluorophenyl)-3-((S)-3-(4-fluorophenyl)-3-hydroxypropyl)-4-oxoazetidin-2-yl)phenethyl)oxetan-3-yloxy)acetic acid], in series [1] (oral dose 1 mg/kg), the “Cholesterol Absorption Inhibition (%)” value is recorded as 87%. Further, the Papp A→B at 2 h in series [2] turned out to be 1.68 ×10⁻⁶ cm/s.

For the compound `O=C(COC1(CCc2ccc([C@@H]3[C@@H](CC[C@H](O)c4ccc(F)cc4)C(=O)N3c3ccc(F)cc3)cc2)COC1)NC(CO)(CO)CO` [Example 46, N-(1,3-dihydroxy-2-(hydroxymethyl)propan-2-yl)-2-(3-(4-((2S,3R)-1-(4-fluorophenyl)-3-((S)-3-(4-fluorophenyl)-3-hydroxypropyl)-4-oxoazetidin-2-yl)phenethyl)oxetan-3-yloxy)acetamide], the “LDL reduction @ day 14 (%)” value in series [3] is on record as 67%. Further, the Papp A→B at 2 h in series [2] is 1.09 ×10⁻⁶ cm/s.
